Source: ChEMBL document CHEMBL1131315, “Synthesis and anticonvulsant activity of 2(3H)-benzoxazolone and 2(3H)-benzothiazolone derivatives” (J Med Chem, 1998)
Active and inactive are the calls of the source. The rule behind the calls is not given here.

Columns and labels:
Mus musculus [1] = experiment: The compound was tested to inhibit 50% of induced subcutaneous pentylenetetrazole seizure in mice on ip administration; assay type: functional
Rattus norvegicus [2] = experiment: The compound was tested for the toxic dose on oral administration; assay type: functional
Mus musculus [3] = experiment: The compound was tested for anticonvulsant activity in Maximal electroshock seizure test for 4 hr in mice(ip); active at 300 mg/kg; assay type: functional, organism-based; set-up: dose 300 mg/kg
Mus musculus [4] = experiment: Anticonvulsant activity in Maximal electroshock seizure test at 100 mg/kg i.p. in mice.; assay type: functional, organism-based; set-up: dose 100 mg/kg
Mus musculus [5] = experiment: The compound was tested for anticonvulsant activity in subcutaneous pentylenetetrazole seizure test (sc Met) for 30 min in mice; activity at 300 mg/kg; assay type: functional, organism-based; set-up: dose 300 mg/kg
Mus musculus [6] = experiment: The compound was tested for anticonvulsant activity in subcutaneous pentylenetetrazole seizure test (sc Met) for 4 hr in mice; activity at 300 mg/kg; assay type: functional, organism-based; set-up: dose 300 mg/kg
[7] = The compound was tested for neurologic toxicity (rotarod) test for 30 min in mice; activity at 100 mg/kg; assay type: organism-based; set-up: dose 100 mg/kg; settings: mouse, in vivo, 0.5 h
[8] = The compound was tested for neurologic toxicity (rotarod) test for 4 hr in mice; no activity or toxicity at 300 mg/kg; assay type: organism-based; set-up: dose 300 mg/kg; settings: mouse, in vivo
Mus musculus [9] = experiment: Time of peak effect in mice following i.p. administration.; assay type: functional
Mus musculus [10] = experiment: The compound was tested for anticonvulsant activity in Maximal electroshock seizure test (MES) for 4 hr in mice(ip); active at 100 mg/kg; assay type: functional, organism-based; set-up: dose 100 mg/kg
Mus musculus [11] = experiment: The compound was tested to inhibit 50% of induced maximal electroshock seizure in mice on ip administration; assay type: functional
Mus musculus [12] = experiment: Inhibition of s.c. pentylenetetrazole induced seizure in mice following i.p. administration.; assay type: functional
Mus musculus [13] = experiment: The compound was tested for anticonvulsant activity in subcutaneous pentylenetetrazole seizure test (sc Met) for 30 min in mice; active at 100 mg/kg; assay type: functional, organism-based; set-up: dose 100 mg/kg
Mus musculus [14] = experiment: The compound was tested for anticonvulsant activity in subcutaneous pentylenetetrazole seizure test (sc Met) for 4 hr in mice; active at 300 mg/kg; assay type: functional, organism-based; set-up: dose 300 mg/kg
Rattus norvegicus [15] = experiment: The compound was tested for the effective oral dose to inhibit 50% of the anticonvulsant in rats.(Value in parenthesis indicate 95% confidence limits).; assay type: functional
Rattus norvegicus [16] = experiment: The compound was tested peroral dose of 25 mg/kg for 0.5 hours for rotarod toxicity; 0/4; assay type: functional; settings: route oral
Rattus norvegicus [17] = experiment: The compound was tested peroral dose of 25 mg/kg for 1 hour for rotarod toxicity; 0/4; assay type: functional; settings: route oral
Rattus norvegicus [18] = experiment: The compound was tested peroral dose of 25 mg/kg for 2 hours for rotarod toxicity; 0/4; assay type: functional; settings: route oral
Rattus norvegicus [19] = experiment: The compound was tested peroral dose of 25 mg/kg for 4 hours for rotarod toxicity; 0/4; assay type: functional; settings: route oral
Rattus norvegicus [20] = experiment: The compound was tested per os dose of 25 mg/kg for 0.5 hours for maximal electroshock test on rats; MES= 3/4; assay type: functional
Rattus norvegicus [21] = experiment: The compound was tested per os dose of 25 mg/kg for 1 hour for maximal electroshock test on rats; MES= 3/4; assay type: functional
Rattus norvegicus [22] = experiment: The compound was tested per os dose of 25 mg/kg for 2 hours for maximal electroshock test on rats; MES= 2/4; assay type: functional
Rattus norvegicus [23] = experiment: The compound was tested per os dose of 25 mg/kg for 4 hours for maximal electroshock test on rats; MES= 2/4; assay type: functional
Rattus norvegicus [24] = experiment: The compound was tested per os dose of 30 mg/kg for 0.25 hours for maximal electroshock test on rats; MES= 0/4; assay type: functional
Rattus norvegicus [25] = experiment: The compound was tested for the toxic dose on oral administration.; assay type: functional
[26] = The compound was tested for neurologic toxicity (rotarod) test for 30 min in mice; active at 100 mg/kg; assay type: organism-based; set-up: dose 100 mg/kg; settings: mouse, in vivo, 0.5 h
[27] = The compound was determined for the dose (mg/kg) by rotarod test at the time of peak neurotoxic effect in mice on ip administration.; assay type: ADME, organism-based; settings: mouse, in vivo
[28] = The compound was tested for time of peak effect (TPE) in hours for its toxicity in mice on ip administration.; assay type: organism-based; settings: mouse, in vivo
[29] = The compound was tested for neurologic toxicity (rotarod) test for 4 hours in mice; active at 300 mg/kg; assay type: organism-based; set-up: dose 300 mg/kg; settings: mouse, in vivo
[30] = Protective index value is the ratio between ED50 and TD50; assay type: functional
Rattus norvegicus [31] = experiment: The compound was tested peroral dose of 25 mg/kg for 0.25 hours for rotarod toxicity; 0/4; assay type: functional; settings: route oral

O=C1NC(=O)C(c2ccccc2)(c2ccccc2)N1 [PHENYTOIN]
ED50 (Mus musculus [1]): > 300 mg/kg | TD50 (Rattus norvegicus [2]): > 3000 mg/kg

CCCCC(=O)c1ccc2c(c1)sc(=O)n2C(C)=O
MES (Mus musculus [3]): active at 300 mg/kg | MES (Mus musculus [4]): active at 300 mg/kg | scMet (Mus musculus [5]): activity at 300 mg/kg | scMet (Mus musculus [6]): activity at 300 mg/kg | Rotarod toxicity [7]: activity at 100 mg/kg | Rotarod toxicity [8]: activity at 100 mg/kg

Oc1nc2ccc(Cc3ccccc3)cc2o1
Activity (Mus musculus [9]): 0.5 h | MES (Mus musculus [4]): active at 100 mg/kg | MES (Mus musculus [10]): active at 100 mg/kg | ED50 (Mus musculus [11]): 68.3 mg/kg | ED50 (Mus musculus [12]): 77.2 mg/kg | scMet (Mus musculus [13]): active at 100 mg/kg | scMet (Mus musculus [14]): active at 100 mg/kg | ED50 (Rattus norvegicus [15]): 23.1 mg/kg | No. of animals exhibiting toxicity / Number of animals tested (Rattus norvegicus [16]): 0 | No. of animals exhibiting toxicity / Number of animals tested (Rattus norvegicus [17]): 0 | No. of animals exhibiting toxicity / Number of animals tested (Rattus norvegicus [18]): 0 | No. of animals exhibiting toxicity / Number of animals tested (Rattus norvegicus [19]): 0 | Protected/Tested (Rattus norvegicus [20]): 3 | Protected/Tested (Rattus norvegicus [21]): 3 | Protected/Tested (Rattus norvegicus [22]): 2 | Protected/Tested (Rattus norvegicus [23]): 2 | Protected/Tested (Rattus norvegicus [24]): 0 | TD50 (Rattus norvegicus [25]): > 500 mg/kg | Rotarod toxicity [26]: active at 100 mg/kg | TD50 [27]: 164 mg/kg | Toxicity [28]: 1 h | Rotarod toxicity [29]: active at 100 mg/kg | PI [30]: 21.7 | No. of animals exhibiting toxicity / Number of animals tested (Rattus norvegicus [31]): 0
